{"source": "patent US11186566B2", "about": "“Modulator of cystic fibrosis transmembrane conductance regulator, pharmaceutical compositions, methods of treatment, and process for making the modulator” (Vertex Pharmaceuticals Incorporated, priority 2016, dated 2021)", "data": [{"target": "F508del-CFTR (Homo sapiens (Human), UniProt P13569, DEL508-508)", "sequence (P13569 other isoform, or with tags, fused parts or gaps del F508-F508)": "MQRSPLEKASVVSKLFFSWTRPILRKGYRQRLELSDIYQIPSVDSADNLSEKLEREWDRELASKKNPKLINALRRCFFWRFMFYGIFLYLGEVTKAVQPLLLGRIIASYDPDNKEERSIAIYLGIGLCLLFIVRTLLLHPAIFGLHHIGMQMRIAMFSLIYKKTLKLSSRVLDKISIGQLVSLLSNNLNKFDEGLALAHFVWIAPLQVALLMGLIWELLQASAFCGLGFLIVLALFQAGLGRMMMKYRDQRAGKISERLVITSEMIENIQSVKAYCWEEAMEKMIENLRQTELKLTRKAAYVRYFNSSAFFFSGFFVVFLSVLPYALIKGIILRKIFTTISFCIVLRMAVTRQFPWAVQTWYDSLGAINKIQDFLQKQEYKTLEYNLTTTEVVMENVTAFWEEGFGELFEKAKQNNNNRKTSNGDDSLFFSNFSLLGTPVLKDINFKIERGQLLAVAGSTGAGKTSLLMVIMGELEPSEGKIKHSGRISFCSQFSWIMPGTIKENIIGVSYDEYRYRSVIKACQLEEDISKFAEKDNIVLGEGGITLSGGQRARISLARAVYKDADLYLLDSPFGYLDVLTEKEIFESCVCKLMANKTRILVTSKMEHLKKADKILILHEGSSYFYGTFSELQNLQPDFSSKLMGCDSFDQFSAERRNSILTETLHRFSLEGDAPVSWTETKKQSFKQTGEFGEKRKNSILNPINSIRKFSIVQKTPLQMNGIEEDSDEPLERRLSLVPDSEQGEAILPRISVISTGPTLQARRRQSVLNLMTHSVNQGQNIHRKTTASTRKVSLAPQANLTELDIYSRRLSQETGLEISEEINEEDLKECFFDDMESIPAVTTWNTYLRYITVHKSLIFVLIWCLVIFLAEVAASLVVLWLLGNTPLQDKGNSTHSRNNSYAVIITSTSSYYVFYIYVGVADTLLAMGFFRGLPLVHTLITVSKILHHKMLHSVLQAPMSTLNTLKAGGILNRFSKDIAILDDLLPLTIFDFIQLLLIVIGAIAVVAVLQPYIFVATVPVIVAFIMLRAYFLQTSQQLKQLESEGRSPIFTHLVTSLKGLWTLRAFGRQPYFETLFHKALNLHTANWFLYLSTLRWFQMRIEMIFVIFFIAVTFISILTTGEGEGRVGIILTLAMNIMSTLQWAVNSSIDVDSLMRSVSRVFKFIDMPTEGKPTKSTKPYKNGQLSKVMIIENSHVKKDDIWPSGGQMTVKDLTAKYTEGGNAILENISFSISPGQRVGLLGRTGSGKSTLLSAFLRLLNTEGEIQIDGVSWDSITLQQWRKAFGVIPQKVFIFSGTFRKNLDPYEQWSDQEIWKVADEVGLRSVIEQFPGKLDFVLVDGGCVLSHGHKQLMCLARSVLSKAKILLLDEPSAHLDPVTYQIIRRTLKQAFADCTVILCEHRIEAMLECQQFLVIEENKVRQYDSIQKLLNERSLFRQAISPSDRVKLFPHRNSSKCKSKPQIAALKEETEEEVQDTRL", "assay": "Membrane potential optical (fluorescent voltage sensing dye, FLIPR III) HTS assay for F508del-CFTR modulators", "format": "cell-based", "settings": "F508del NIH 3T3 cells, assay 5A-A1; read-out: CFTRdF508 EC50", "description": "(§1) Membrane Potential Optical Methods for Assaying Properties of F508del-CFTR Modulators\n(§2) The assay utilizes fluorescent voltage sensing dyes to measure changes in membrane potential using a fluorescent plate reader (e.g., FLIPR III, Molecular Devices, Inc.) as a readout for increase in functional F508del in NIH 3T3 cells.\n(§3) 5A-A1. Identification of F508Del-CFTR Modulators\n(§4) To identify modulators of F508del, a fluorescence based HTS assay format was developed. This HTS assay utilizes fluorescent voltage sensing dyes to measure changes in membrane potential on the FLIPR III as a measurement for increase in gating (conductance) of F508del NIH 3T3 cells.\n(§5) (in mM) NaCl 160, KCl 4.5, CaCl2 2, MgCl2 1, HEPES 10, pH 7.4 with NaOH, Glucose 10.\n(§6) Chloride salts in Bath Solution #1 (above) are substituted with gluconate salts.\n(§7) NIH3T3 mouse fibroblasts stably expressing F508del are used for optical measurements of membrane potential. The cells are maintained at 37° C. in 5% CO2 and 90% humidity in Dulbecco's modified Eagle's medium supplemented with 2 mM glutamine, 10% fetal bovine serum, 1×NEAA, β-ME, 1×pen/strep, and 25 mM HEPES in 175 cm^2 culture flasks. For all optical assays, the cells were seeded at 12,000 cells/well in 384-well matrigel-coated plates and cultured for 18-24 hrs at 37° C. for the potentiator assay. For the correction assays, the cells are cultured at 37° C. with and without compounds for 18-24 hours.", "units": {"EC50": "nM"}, "values": [{"compound": "C[C@@H]1CN(c2nc(-n3ccc(OCC45CC(F)(C4)C5)n3)ccc2C(=O)NS(=O)(=O)c2ccccc2)C(C)(C)C1", "note": "[Compound 63, N-(Benzenesulfonyl)-6-[3-[(3-fluoro-1-bicyclo[1.1.1]pentanyl)methoxy]pyrazol-1-yl]-2-[(4S)-2,2,4-trimethylpyrrolidin-1-yl]pyridine-3-carboxamide]", "EC50": "100 to 1000"}, {"compound": "C[C@@H]1CN(c2nc(-n3ccc(OCC4(C(F)(F)F)CC4)n3)ccc2C(=O)NS(=O)(=O)c2ccccc2O)C(C)(C)C1", "note": "[Compound 20, N-(2-Hydroxyphenyl)sulfonyl-6-[3-[[1-(trifluoromethyl)cyclopropyl]methoxy]pyrazol-1-yl]-2-[(4S)-2,2,4-trimethylpyrrolidin-1-yl]pyridine-3-carboxamide]", "EC50": "100 to 1000"}, {"compound": "C[C@@H]1CN(c2nc(-n3ccc(O[C@@H]4C[C@@H]4C(F)(F)F)n3)ccc2C(=O)NS(=O)(=O)c2ccccc2)C(C)(C)C1", "note": "(racemic) [Compound 18, N-(Benzenesulfonyl)-6-[3-[(cis)-2-(trifluoromethyl)cyclopropoxy]pyrazol-1-yl]-2-[(4S)-2,2,4-trimethylpyrrolidin-1-yl]pyridine-3-carboxamide]", "EC50": "100 to 1000"}, {"compound": "COc1ccc(S(=O)(=O)NC(=O)c2ccc(-n3ccc(OCC4(C(F)(F)F)CC4)n3)nc2N2C[C@@H](C)CC2(C)C)cc1", "note": "[Compound 54, N-(4-methoxyphenyl)sulfonyl-6-[3-[[l-(trifluoromethyl)cyclopropyl]methoxy]pyrazol-1-yl]-2-[(4S)-2,2,4-trimethylpyrrolidin-1-yl]pyridine-3-carboxamide]", "EC50": "< 100"}, {"compound": "C[C@@H]1CN(c2nc(-n3ccc(OCC4CC45CC5)n3)ccc2C(=O)NS(=O)(=O)c2ccccc2)C(C)(C)C1", "note": "(stereo partly drawn) [Compound 60, N-(Benzenesulfonyl)-6-[3-(spiro[2.2]pentan-2-ylmethoxy)pyrazol-1-yl]-2-[(4S)-2,2,4-trimethylpyrrolidin-1-yl]pyridine-3-carboxamide]", "EC50": "100 to 1000"}, {"compound": "C[C@@H]1CN(c2nc(-n3ccc(OCC4(C(F)(F)F)CC4)n3)ccc2C(=O)NS(=O)(=O)c2ccc(F)cc2)C(C)(C)C1", "note": "[Compound 52, N-(4-fluorophenyl)sulfonyl-6-[3-[[1-(trifluoromethyl)cyclopropyl]methoxy]pyrazol-1-yl]-2-[(4S)-2,2,4-trimethylpyrrolidin-1-yl]pyridine-3-carboxamide]", "EC50": "< 100"}, {"compound": "CC1(C)CN(c2nc(-n3ccc(OCC4(C(F)(F)F)CC4)n3)ccc2C(=O)NS(=O)(=O)c2ccccc2)C(C)(C)C1", "note": "[Compound 56, N-(Benzenesulfonyl)-2-(2,2,4,4-tetramethylpyrrolidin-1-yl)-6-[3-[[1-(trifluoromethyl)cyclopropyl]methoxy]pyrazol-1-yl]pyridine-3-carboxamide]", "EC50": "100 to 1000"}, {"compound": "C[C@@H]1CN(c2nc(-n3ccc(OCC4(C(F)(F)F)CC4)n3)ccc2C(=O)NS(=O)(=O)c2cccc(O)c2)C(C)(C)C1", "note": "[Compound 21, N-(3-Hydroxyphenyl)sulfonyl-6-[3-[[1-(trifluoromethyl)cyclopropyl]methoxy]pyrazol-1-yl]-2-[(4S)-2,2,4-trimethylpyrrolidin-1-yl]pyridine-3-carboxamide]", "EC50": "< 100"}, {"compound": "COc1cc(C)ccc1S(=O)(=O)NC(=O)c1ccc(-n2ccc(OCC3(C(F)(F)F)CC3)n2)nc1N1C[C@@H](C)CC1(C)C", "note": "[Compound 12, N-(2-Methoxy-4-methyl-phenyl)sulfonyl-6-[3-[[1-(trifluoromethyl)cyclopropyl]methoxy]pyrazol-1-yl]-2-[(4S)-2,2,4-trimethylpyrrolidin-1-yl]pyridine-3-carboxamide]", "EC50": "< 100"}, {"compound": "C[C@@H]1CN(c2nc(-n3ccc(OCC4(C(F)(F)F)CCC4)n3)ccc2C(=O)NS(=O)(=O)c2cccc(F)c2)C(C)(C)C1", "note": "[Compound 59, N-(3-Fluorophenyl)sulfonyl-6-[3-[[1-(trifluoromethyl)cyclobutyl]methoxy]pyrazol-1-yl]-2-[(4S)-2,2,4-trimethylpyrrolidin-1-yl]pyridine-3-carboxamide]", "EC50": "< 100"}, {"compound": "C[C@@H]1CN(c2nc(-n3ccc(O)n3)ccc2C(=O)NS(=O)(=O)c2ccccc2)C(C)(C)C1", "note": "[Compound 65, N-(benzenesulfonyl)-6-(3-hydroxypyrazol-1-yl)-2-[(4S)-2,2,4-trimethylpyrrolidin-1-yl]pyridine-3-carboxamide]", "EC50": "> 1000"}, {"compound": "Cc1cc(C#N)ccc1S(=O)(=O)NC(=O)c1ccc(-n2ccc(OCC3(C(F)(F)F)CC3)n2)nc1N1C[C@@H](C)CC1(C)C", "note": "[Compound 11, N-(4-Cyano-2-methyl-phenyl)sulfonyl-6-[3-[[1-(trifluoromethyl)cyclopropyl]methoxy]pyrazol-1-yl]-2-[(4S)-2,2,4-trimethylpyrrolidin-1-yl]pyridine-3-carboxamide]", "EC50": "100 to 1000"}, {"compound": "C[C@@H]1CN(c2nc(-n3ccc(OCCC4(C(F)(F)F)CC4)n3)ccc2C(=O)NS(=O)(=O)c2cccc(O)c2)C(C)(C)C1", "note": "[Compound 35, N-(3-Hydroxyphenyl)sulfonyl-6-[3-[2-[1-(trifluoromethyl)cyclopropyl]ethoxy]pyrazol-1-yl]-2-[(4S)-2,2,4-trimethylpyrrolidin-1-yl]pyridine-3-carboxamide]", "EC50": "< 100"}, {"compound": "C[C@H]1CN(c2nc(-n3ccc(OCCC4(C(F)(F)F)CC4)n3)ccc2C(=O)NS(=O)(=O)c2ccccc2)C(C)(C)C1", "note": "[Compound 2, (R)—N-(Phenylsulfonyl)-6-(3-(2-(1-(trifluoromethyl)cyclopropyl)ethoxy)-1H-pyrazol-1-yl)-2-(2,2,4-trimethylpyrrolidin-1-yl)nicotinamide]", "EC50": "100 to 1000"}, {"compound": "C[C@H]1CC(C)(C)N2c3nc(-n4ccc(OCCC5(C(F)(F)F)CC5)n4)ccc3C(=O)OC12", "note": "(stereo partly drawn) [Compound 62, (5S)-3,3,5-trimethyl-12-(3-(2-[1-(trifluoromethyl)cyclopropyl]ethoxy)-1H-pyrazol-1-yl)-7-oxa-2,13-diazatricyclo[7.4.0.02,6]trideca-1(13),9,11-trien-8-one]", "EC50": "> 1000"}, {"compound": "C[C@@H]1CN(c2nc(-n3ccc(OCC(O)C4(C(F)(F)F)CC4)n3)ccc2C(=O)NS(=O)(=O)c2ccccc2)C(C)(C)C1", "note": "(stereo partly drawn) [Compound 38, N-(Benzenesulfonyl)-6-[3-[2-hydroxy-2-[1-(trifluoromethyl)cyclopropyl]ethoxy]pyrazol-1-yl]-2-[(4S)-2,2,4-trimethylpyrrolidin-1-yl]pyridine-3-carboxamide]", "EC50": "100 to 1000"}, {"compound": "C[C@@H]1CN(c2nc(-n3ccc(OCCC4(C(F)(F)F)CC4)n3)ccc2C(=O)NS(=O)(=O)c2ccccc2O)C(C)(C)C1", "note": "[Compound 34, N-(2-hydroxyphenyl)sulfonyl-6-[3-[2-[1-(trifluoromethyl)cyclopropyl]ethoxy]pyrazol-1-yl]-2-[(4S)-2,2,4-trimethylpyrrolidin-1-yl]pyridine-3-carboxamide]", "EC50": "< 100"}, {"compound": "COc1cc(S(=O)(=O)NC(=O)c2ccc(-n3ccc(OCCC4(C(F)(F)F)CC4)n3)nc2N2C[C@@H](C)CC2(C)C)ccc1O", "note": "[Compound 3, (S)—N-((4-Hydroxy-3-methoxyphenyl)sulfonyl)-6-(3-(2-(1-(trifluoromethyl)cyclopropyl)ethoxy)-1H-pyrazol-1-yl)-2-(2,2,4-trimethylpyrrolidin-1-yl)nicotinamide]", "EC50": "< 100"}, {"compound": "C[C@@H]1CN(c2nc(-n3ccc(OCC4(C(F)(F)F)CC4)n3)ccc2C(=O)NS(=O)(=O)c2ccccc2C#N)C(C)(C)C1", "note": "[Compound 26, N-(2-Cyanophenyl)sulfonyl-6-[3-[[1-(trifluoromethyl)cyclopropyl]methoxy]pyrazol-1-yl]-2-[(4S)-2,2,4-trimethylpyrrolidin-1-yl]pyridine-3-carboxamide]", "EC50": "> 1000"}, {"compound": "C[C@@H]1CN(c2nc(-n3ccc(OCC4(C(F)(F)F)CC4)n3)ccc2C(=O)NS(=N)(=O)c2ccccc2)C(C)(C)C1", "note": "(single isomer, unassigned) [Compound 46]", "EC50": "< 100"}, {"compound": "C[C@@H]1CN(c2nc(-n3ccc(OC4CC4)n3)ccc2C(=O)NS(=O)(=O)c2ccccc2)C(C)(C)C1", "note": "[Compound 48, N-(Benzenesulfonyl)-6-[3-(cyclopropoxy)pyrazol-1-yl]-2-[(4S)-2,2,4-trimethylpyrrolidin-1-yl]pyridine-3-carboxamide]", "EC50": "> 1000"}, {"compound": "CC1(C)CC(CO)CN1c1nc(-n2ccc(OCCC3(C(F)(F)F)CC3)n2)ccc1C(=O)NS(=O)(=O)c1ccccc1", "note": "(centres unmarked) [Compound 9, N-(Benzenesulfonyl)-2-[4-(hydroxymethyl)-2,2-dimethyl-pyrrolidin-1-yl]-6-[3-[2-[1-(trifluoromethyl)cyclopropyl]ethoxy]pyrazol-1-yl]pyridine-3-carboxamide]", "EC50": "100 to 1000"}, {"compound": "Cc1ccccc1S(=O)(=O)NC(=O)c1ccc(-n2ccc(OCC3C4(CC4)C34CC4)n2)nc1N1C[C@@H](C)CC1(C)C", "note": "[Compound 8, 6-[3-(Dispiro[2.0.2^4.1^3]heptan-7-ylmethoxy)pyrazol-1-yl]-N-(o-tolylsulfonyl)-2-[(4S)-2,2,4-trimethylpyrrolidin-1-yl]pyridine-3-carboxamide]", "EC50": "< 100"}]}, {"target": "F508del-CFTR (Homo sapiens (Human), UniProt P13569, DEL508-508)", "assay": "Membrane potential optical (fluorescent voltage sensing dye, FLIPR III) HTS assay for F508del-CFTR modulators", "format": "cell-based", "settings": "Table 7, Compound 1 and metabolites; read-out: CFTRdF508 EC50", "description": "as §1, §2, §3, §4, §5, §6, §7", "units": {"EC50": "nM"}, "values": [{"compound": "C[C@H]1CC(C)(C)N2c3nc(-n4ccc(OCCC5(C(F)(F)F)CC5)n4)ccc3C(=O)OC12", "note": "(stereo partly drawn) [Compound 62, (5S)-3,3,5-trimethyl-12-(3-(2-[1-(trifluoromethyl)cyclopropyl]ethoxy)-1H-pyrazol-1-yl)-7-oxa-2,13-diazatricyclo[7.4.0.02,6]trideca-1(13),9,11-trien-8-one]", "EC50": "> 30000"}, {"compound": "C[C@@H]1CN(c2nc(-n3ccc(OCC(O)C4(C(F)(F)F)CC4)n3)ccc2C(=O)NS(=O)(=O)c2ccccc2)C(C)(C)C1", "note": "(stereo partly drawn) [Compound 38, N-(Benzenesulfonyl)-6-[3-[2-hydroxy-2-[1-(trifluoromethyl)cyclopropyl]ethoxy]pyrazol-1-yl]-2-[(4S)-2,2,4-trimethylpyrrolidin-1-yl]pyridine-3-carboxamide]", "EC50": 240}, {"compound": "C[C@@H]1CN(c2nc(-n3ccc(OCCC4(C(F)(F)F)CC4)n3)ccc2C(=O)NS(=O)(=O)c2ccccc2O)C(C)(C)C1", "note": "[Compound 34, N-(2-hydroxyphenyl)sulfonyl-6-[3-[2-[1-(trifluoromethyl)cyclopropyl]ethoxy]pyrazol-1-yl]-2-[(4S)-2,2,4-trimethylpyrrolidin-1-yl]pyridine-3-carboxamide]", "EC50": 90}]}]}
